# According to patent US9556165B2 (priority 2012, dated 2017):
# Tests used:
# Type in all cases: cell-based
# H. influenzae ATCC 49247 = experiment: MIC determination, broth microdilution (CLSI); settings: Haemophilus influenzae, ATCC49247, strain 13; read-out: strain 13 MIC
# M. catarrhalis ICB489 = experiment: MIC determination, broth microdilution (CLSI); settings: for MIC: Moraxella catarrhalis, ICB489, strain 12
# E. coli J62-TEM-3 = experiment: MIC determination, broth microdilution (CLSI); settings: Escherichia coli, J62TEM3, read-out: strain 18 MIC, strain 18
# P. aeruginosa PAO1 = experiment: MIC determination, broth microdilution (CLSI); settings: for MIC: Pseudomonas aeruginosa, PAO1, strain 6
# [1] = test system: P. aeruginosa 2297 (AmpC wt); experiment: MIC determination, broth microdilution (CLSI); settings: for MIC: Pseudomonas aeruginosa, strain 7
# C. freundii K21/3034 = experiment: MIC determination, broth microdilution (CLSI); settings: for MIC: Citrobacter freundii, K21/3034, strain 4
# [2] = test system: P. aeruginosa 2297-con (AmpC derepressed); experiment: MIC determination, broth microdilution (CLSI); settings: for MIC: Pseudomonas aeruginosa, read-out: strain 8 MIC, strain 8
# strain 19 = experiment: MIC determination, broth microdilution (CLSI)
# M. morganii 126/3048 = experiment: MIC determination, broth microdilution (CLSI); settings: for MIC: Morganella morganii, 126/3048, strain 5
# S. pneumoniae 113 = experiment: MIC determination, broth microdilution (CLSI); settings: Streptococcus pneumoniae, 113, strain 14; read-out: strain 14 MIC
# A. baumannii ATCC15308 = experiment: MIC determination, broth microdilution (CLSI); settings: for MIC: Acinetobacter baumannii, ATCC15308, strain 9
# E. coli ATCC25922 = experiment: MIC determination, broth microdilution (CLSI); settings: for MIC: Escherichia coli, ATCC25922, strain 1
# strain 20 = experiment: MIC determination, broth microdilution (CLSI)
# C. perfringens DSM756 = experiment: microbe, parasite or virus in culture; settings: for MIC: Clostridium perfringens, DSM756, read-out: strain 16 MIC, strain 16
# K. pneumoniae 60 = experiment: MIC determination, broth microdilution (CLSI); settings: for MIC: Klebsiella pneumoniae, 60, strain 2
# strain 21 = experiment: MIC determination, broth microdilution (CLSI)
# E. coli J62 = experiment: MIC determination, broth microdilution (CLSI); settings: for MIC: Escherichia coli, J62, strain 17, read-out: strain 17 MIC
# B. fragilis 6688 = experiment: MIC determination, broth microdilution (CLSI); settings: for MIC: Bacteroides fragilis, 6688, strain 15, read-out: strain 15 MIC
# S. maltophilia ICB7569 = experiment: MIC determination, broth microdilution (CLSI); settings: Stenotrophomonas maltophilia, ICB7569, strain 10
# E. cloacae 34654 = experiment: MIC determination, broth microdilution (CLSI); settings: for MIC: Enterobacter cloacae, 34654, strain 3
# S. aureus 133 = experiment: MIC determination, broth microdilution (CLSI); settings: Staphylococcus aureus, 133, strain 11; read-out: strain 11 MIC
Structure (SMILES),MIC (H. influenzae ATCC 49247) [µg/mL],MIC (M. catarrhalis ICB489) [µg/mL],MIC (E. coli J62-TEM-3) [µg/mL],MIC (P. aeruginosa PAO1) [µg/mL],MIC [1] [µg/mL],MIC (C. freundii K21/3034) [µg/mL],MIC [2] [µg/mL],MIC (strain 19) [µg/mL],MIC (M. morganii 126/3048) [µg/mL],MIC (A. baumannii ATCC15308) [µg/mL],MIC (E. coli ATCC25922) [µg/mL],MIC (strain 20) [µg/mL],MIC (C. perfringens DSM756) [µg/mL],MIC (K. pneumoniae 60) [µg/mL],MIC (strain 21) [µg/mL],MIC (E. coli J62) [µg/mL],MIC (B. fragilis 6688) [µg/mL],MIC (S. maltophilia ICB7569) [µg/mL],MIC (E. cloacae 34654) [µg/mL],MIC (S. aureus 133) [µg/mL],also measured
"CC1(C)[C@H](NC(=O)/C(=N\OCCOc2ccc(C(=N)N)nc2)c2csc(N)n2)C(=O)N1OS(=O)(=O)O [Example 4, (2Z)-2-(2-Amino-1,3-thiazol-4-yl)-2-({2-[(6-carbamimidoylpyridin-3-yl)oxy]ethoxy}imino)-N-[(3)-2,2-dimethyl-4-oxo-1-(sulfooxy)azetidin-3-yl]ethanamide]",≤ 0.063,≤ 0.063,8,4,16,0.125,8,0.125,0.25,1,0.125,0.25,2,0.25,0.25,0.25,2,4,0.5,≤ 0.063,MIC (S. pneumoniae 113): 16 µg/mL
"CC1(C)[C@H](NC(=O)/C(=N\OCCOc2ccc(C3=NCCN3)cc2)c2csc(N)n2)C(=O)N1OS(=O)(=O)O [Example 25, (2Z)-2-(2-Amino-1,3-thiazol-4-yl)-2-({2-[4-(4,5-dihydro-1H-imidazol-2-yl)phenoxy]ethoxy}imino)-N-[(3S)-2,2-dimethyl-4-oxo-1-(sulfooxy)azetidin-3-yl]ethanamide]",≤ 0.063,≤ 0.063,4,2,4,0.125,4,0.125,0.125,2,0.125,0.125,2,0.25,0.125,0.25,2,8,0.25,≤ 0.063,MIC (S. pneumoniae 113): 4 µg/mL
"CC1(C)[C@H](NC(=O)/C(=N\OCCOc2cnc(C(=N)N)c(O)c2)c2csc(N)n2)C(=O)N1OS(=O)(=O)O [Example 33, (2Z)-2-(2-Amino-1,3-thiazol-4-yl)-2-({2-[(6-carbamimidoyl-5-hydroxypyridin-3-yl)oxy]ethoxy}imino)-N-[(3S)-2,2-dimethyl-4-oxo-1-(sulfooxy)azetidin-3-yl]ethanamide]",≤ 0.063,0.125,32,8,16,0.25,8,0.25,0.25,8,0.25,0.25,2,0.5,0.5,0.5,4,16,0.5,≤ 0.063,MIC (S. pneumoniae 113): 32 µg/mL
"CC1(C)[C@H](NC(=O)/C(=N\OCCOc2ccnc(C(=N)N)c2)c2csc(N)n2)C(=O)N1OS(=O)(=O)O [Example 15, (2Z)-2-(2-Amino-1,3-thiazol-4-yl)-2-({2-[(2-carbamimidoylpyridin-4-yl)oxy]ethoxy}imino)-N-[(3S)-2,2-dimethyl-4-oxo-1-(sulfooxy)azetidin-3-yl]ethanamide]",≤ 0.063,≤ 0.063,8,8,8,0.5,8,0.5,0.5,2,0.5,0.5,0.5,1,0.5,1,2,4,1,≤ 0.063,MIC (S. pneumoniae 113): 2 µg/mL
"CC1(C)[C@H](NC(=O)/C(=N\OCCOc2ccc(C(=N)NC3CCNCC3)cc2)c2csc(N)n2)C(=O)N1OS(=O)(=O)O [Example 23, (2Z)-2-(2-Amino-1,3-thiazol-4-yl)-N-[(3S)-2,2-dimethyl-4-oxo-1-(sulfooxy)azetidin-3-yl]-2-[(2-{4-[N-(piperidin-4-yl)carbamimidoyl]phenoxy}ethoxy)imino]ethanamide]",≤ 0.063,≤ 0.063,1,2,2,0.125,2,0.125,0.5,0.5,0.125,0.125,2,0.25,0.25,0.25,4,16,0.5,≤ 0.063,MIC (S. pneumoniae 113): 1 µg/mL
"CC1(C)[C@H](NC(=O)/C(=N\OCCOc2cc(C(=N)N)ccn2)c2csc(N)n2)C(=O)N1OS(=O)(=O)O [Example 22, (2Z)-2-(2-Amino-1,3-thiazol-4-yl)-2-({2-[(4-carbamimidoylpyridin-2-yl)oxy]ethoxy}imino)-N-[(3S)-2,2-dimethyl-4-oxo-1-(sulfooxy)azetidin-3-yl]ethanamide]",≤ 0.063,0.125,8,16,32,0.5,16,0.5,1,4,1,1,2,1,1,1,4,4,1,≤ 0.063,MIC (S. pneumoniae 113): 2 µg/mL
"CC1(C)[C@H](NC(=O)/C(=N\OC(COc2ccc(C(=N)N)cc2)C(=O)O)c2csc(N)n2)C(=O)N1OS(=O)(=O)O (mixture of isomers) [Example 27A, (2S and 2R)-2-({[(1Z)-1-(2-Amino-1,3-thiazol-4-yl)-2-{[(3S)-2,2-dimethyl-4-oxo-1-(sulfo-oxy)azetidin-3-yl]amino}-2-oxoethylidene]amino}oxy)-3-(4-carbamimidoylphenoxy)-propanoic acid]",0.5,,8,,,,,,,,,,,,,,,4,,≤ 0.063,strain 12 MIC (M. catarrhalis ICB489; strain 12): ≦0.063 mg/L; strain 6 MIC (P. aeruginosa PAO1; strain 6): 4 µg/mL; strain 7 MIC [1]: 4 µg/mL; strain 4 MIC (C. freundii K21/3034; strain 4): 0.25 µg/mL; strain 8 MIC ([2]; strain 8): 4 µg/mL; strain 19 MIC (strain 19): 0.25 µg/mL; strain 5 MIC (M. morganii 126/3048; strain 5): 0.125 µg/mL; strain 9 MIC (A. baumannii ATCC15308; strain 9): 4 µg/mL; strain 1 MIC (E. coli ATCC25922; strain 1): 0.25 µg/mL; strain 20 MIC (strain 20): 0.25 µg/mL; strain 16 MIC (C. perfringens DSM756; strain 16): 4 µg/mL; strain 2 MIC (K. pneumoniae 60; strain 2): 0.125 µg/mL; strain 21 MIC (strain 21): 0.25 µg/mL; strain 17 MIC (E. coli J62; strain 17): 0.25 µg/mL; strain 15 MIC (B. fragilis 6688; strain 15): 8 µg/mL; strain 3 MIC (E. cloacae 34654; strain 3): 0.25 µg/mL
"CC1(C)[C@H](NC(=O)/C(=N\OCCOc2ccc(C(=N)NCCN)cc2)c2csc(N)n2)C(=O)N1OS(=O)(=O)O [Example 24, (2Z)-2-[(2-{4-[N-(2-Aminoethyl)carbamimidoyl]phenoxy}ethoxy)imino]-2-(2-amino-1,3-thiazol-4-yl)-N-[(3S)-2,2-dimethyl-4-oxo-1-(sulfooxy)azetidin-3-yl]ethanamide]",≤ 0.063,≤ 0.063,2,2,4,0.125,2,0.125,0.125,1,0.125,0.25,2,0.25,0.5,0.125,2,8,0.25,≤ 0.063,MIC (S. pneumoniae 113): 2 µg/mL
"N=C(N)c1ccc(OCCO/N=C(\C(=O)NC2C(=O)N(OS(=O)(=O)O)C23CCCC3)c2csc(N)n2)cc1 (stereo not shown) [Example 16, (2Z)-2-(2-Amino-1,3-thiazol-4-yl)-2-{[2-(4-carbamimidoylphenoxy)ethoxy]imino}-N-[2-oxo-1-(sulfooxy)-1-azaspiro[3.4]oct-3-yl]ethanamide]",≤ 0.063,1,4,32,32,2,32,1,0.5,4,1,1,4,1,1,2,8,8,1,≤ 0.063,
